Laboratory results as given in patent US20260217765A1, “NOVEL ANTIMICROBIAL PEPTIDE DESIGNED FROM DUCK-DERIVED ANTIMICROBIAL PEPTIDE ANDUSE THEREOF” (INDUSTRY-ACADEMIC COOPERATION FOUNDATION, CHOSUN UNIVERSITY, priority 2023, published 2026).
Peptide text beside a SMILES is read from it.

What was measured:
[1] = test system: Acinetobacter baumannii KCTC 2508; assay type: cell-based; conditions: various salt concentrations
Description: To determine whether the peptides prepared in <Example 1> retain antimicrobial activity under salt concentrations present in vivo, the minimal inhibitory concentration (MIC) of the peptides was measured under various salt concentrations. Specifically, among the bacterial strains listed in Table 2, Acinetobacter baumannii KCTC 2508 was cultured in suitable medium to the mid-log phase, then diluted to a concentration of 2×10^4 cells/100 μL and dispensed into a microtiter plate (Nunc, USA). The peptides prepared in <Example 1> were serially diluted two-fold under various salt concentration conditions and added to the wells, followed by incubation at 37° C. for 18 hours. Absorbance at 600 nm was measured using a microtiter plate reader (Merck ELISA reader, Germany) to determine the MIC values for each strain. The parent peptide dCATH was used as a control.

sheep red blood cells = assay type: cell-based
Description: To evaluate the cytotoxicity of the peptides prepared in <Example 1>, their hemolytic activity against red blood cells was measured. Hemolysis refers to the rupture of red blood cells with the release of hemoglobin into the surrounding fluid. The cytotoxicity of the novel peptides of the present disclosure was assessed by measuring their hemolytic activity against erythrocytes.
Specifically, sheep red blood cells were diluted with PBS (pH 7.0) to a final concentration of 8%. The peptides dCATH, dCATH-A1, dCATH-A2, dCATH-A3, dCATH-A4, dCATH-A5, dCATH-A6, and dCATH-A7 were each added to the wells at concentrations of 3.13, 6.25, 12.5, 25.0, 50.0, and 100.0 μM/well and reacted at 37° C. for 1 hour. Thereafter, the samples were centrifuged at 1, 000×g, and the absorbance of hemoglobin in the supernatant was measured at 414 nm. As a control for complete cell lysis, 1% Triton X-100 (Sigma, USA) was used and incubated under the same conditions. The absorbance of this sample was set to represent 100% hemolysis, and hemolytic activity (%) for each peptide was calculated using the following Equation 1.
In the above equation, Absorbance A is the absorbance at 414 nm of the reaction solution treated with each peptide, Absorbance B is the absorbance at 414 nm of the PBS-treated reaction solution, and Absorbance C is the absorbance at 414 nm of the reaction solution treated with 1% Triton X-100.

[2] = test system: Acinetobacter baumannii isolate 10; test: In vivo antimicrobial activity, intranasal lung infection, H&E staining; set-up: species or system BALB/c mice; conditions: mice intranasally infected with A. baumannii isolate 10, peptide intranasal, day 3
Description: Among the peptides prepared in <Example 1>, dCATH-A7 was selected to evaluate in vivo antimicrobial activity.
Among the antibiotic-resistant strains, Acinetobacter baumannii isolate 10 was selected for the experiment. The bacteria were washed three times with PBS buffer prior to use. After a one-week acclimation period, BALB/c mice (6 weeks old) were intranasally infected with 20 μL of a 1×10^9 CFU/mL bacterial suspension. Following infection, the peptide was prepared at a concentration of 5 mg/mL and administered intranasally. On day 3, lung tissue samples were collected and subjected to hematoxylin and eosin (H&E) staining to assess tissue damage.

Row | Structure (SMILES) | antimicrobial activity (MIC) under salt conditions compared to the parent peptide dCATH [1] | hemolytic activity at concentrations corresponding to antimicrobial activity (sheep red blood cells) | lung tissue damage (H&E staining) [2]
1 | CC[C@H](C)[C@H](NC(=O)[C@H](C)NC(=O)[C@H](CCCCN)NC(=O)[C@H](CCCCN)NC(=O)[C@@H](NC(=O)[C@H](CC(C)C)NC(=O)[C@H](CCC(N)=O)NC(=O)[C@H](C)NC(=O)[C@H](C)NC(=O)[C@H](CCCNC(=N)N)NC(=O)[C@@H](N)CCCCN)C(C)C)C(=O)N[C@@H](CCCCN)C(=O)N[C@@H](CCCCN)C(=O)N[C@@H](Cc1ccc(O)cc1)C(=O)N[C@@H](CCCNC(=N)N)C(=O)N[C@@H](C)C(=O)N[C@@H](Cc1c[nH]c2ccccc12)C(=O)N[C@@H](CCCCN)C(N)=O [dCATH-A7, KRAAQLVKKAIKKYRAWK] (H-KRAAQLVKKAIKKYRAWK-NH2; N-terminus assumed) | lower MIC values than the control | no hemolytic activity | minimal fibrosis and overall reduced tissue damage
2 | CC[C@H](C)[C@H](NC(=O)[C@H](C)NC(=O)[C@H](CCCCN)NC(=O)[C@H](CCCCN)NC(=O)[C@@H](NC(=O)[C@H](CC(C)C)NC(=O)[C@H](CCC(N)=O)NC(=O)[C@H](C)NC(=O)[C@H](C)NC(=O)[C@H](CCCNC(=N)N)NC(=O)[C@@H](N)CCCCN)C(C)C)C(=O)N[C@@H](CCCCN)C(=O)N[C@@H](CCCCN)C(=O)N[C@@H](Cc1ccc(O)cc1)C(=O)N[C@@H](CCCNC(=N)N)C(=O)N[C@@H](C)C(=O)N[C@@H](Cc1c[nH]c2ccccc12)C(=O)N[C@@H](CCCCN)C(=O)N[C@@H](CCCNC(=N)N)C(=O)N[C@@H](CCCNC(=N)N)C(N)=O [dCATH-A6] (H-KRAAQLVKKAIKKYRAWKRR-NH2; N-terminus assumed) | lower MIC values than the control | no hemolytic activity | –
